Data on seven molecules can be found in PubChem BioAssay (NCI).

Test systems include UACC-62 melanoma; UO-31 renal; MOLT-4 leukemia; SK-MEL-5 melanoma; MDA-MB-231 breast; CAKI-1 renal; HS 578T breast; A498 renal; OVCAR-5 ovarian; MALME-3M melanoma.
Assay in all cases: NCI-60 cell line screen, 48 h

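Five compound concentrations were applied to cells in 96-well plates for 48 hours; endpoints were derived by simple linear interpolation of the resulting dose-response curve. GI50 = concentration required for 50% inhibition of growth. TGI denotes the concentration required for complete inhibition of growth.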

Turning to `CN[C@@H](C)C(=O)N[C@H]1CN(C(=O)CC(C)C)CC[C@H]2CC[C@@H](C(=O)NC(c3ccccc3)c3ccccc3)N2C1=O`, the GI50 is over 100 µM in the experiment on UACC-62 melanoma; over 100 µM with UO-31 renal; over 86.7 µM in the experiment on MOLT-4 leukemia; 41.9 µM with SK-MEL-5 melanoma; 0.642 µM in the experiment on MDA-MB-231 breast; over 100 µM in the experiment with CAKI-1 renal. Also, the GI50 in the experiment with HS 578T breast was over 81.7 µM; with A498 renal it was over 42.7 µM; in the experiment with OVCAR-5 ovarian, over 100 µM; in the experiment with MALME-3M melanoma it was 4.29 µM. For the same molecule, the TGI in the experiment on UACC-62 melanoma was over 100 µM; in the experiment on UO-31 renal, over 100 µM; in the experiment on MOLT-4 leukemia, over 100 µM; in the experiment on SK-MEL-5 melanoma, over 100 µM; with MDA-MB-231 breast it was 5.7 µM; with CAKI-1 renal it was over 100 µM. Further, the TGI in the experiment with HS 578T breast is over 100 µM; with A498 renal, over 100 µM; in the experiment on OVCAR-5 ovarian, over 100 µM; with MALME-3M melanoma, over 53.9 µM.
Take `CCN(CC)CCCC(C)Nc1cc(-c2ccc(C(F)(F)F)cc2)c(C#N)c2nc3ccccc3n12` (stereo not given): the GI50 in the experiment on UACC-62 melanoma was 1.72 µM; with UO-31 renal, 1.41 µM; in the experiment with MOLT-4 leukemia it was 3.19 µM; in the experiment on MDA-MB-231 breast it was 1.58 µM; in the experiment with CAKI-1 renal, 2.89 µM; in the experiment with HS 578T breast it was 1.82 µM. In addition, the GI50 is 1.47 µM with A498 renal, 2.29 µM in the experiment with OVCAR-5 ovarian and 1.83 µM in the experiment on MALME-3M melanoma. For the same molecule, the TGI came out at 3.38 µM in the experiment on UACC-62 melanoma; 2.87 µM in the experiment with UO-31 renal; 12.1 µM with MOLT-4 leukemia; 3.42 µM with MDA-MB-231 breast; 12.5 µM in the experiment with CAKI-1 renal; 4.86 µM in the experiment with HS 578T breast. Also, the TGI amounted to 2.9 µM with A498 renal, 5.15 µM in the experiment with OVCAR-5 ovarian and 3.54 µM with MALME-3M melanoma.
Turning to `COc1cc(-c2nc(NC(C)=O)sc2-c2ccnc(NCCNS(=O)(=O)c3ccccc3)n2)ccc1Cl`, the GI50 with UACC-62 melanoma is 2.61 µM; in the experiment with UO-31 renal, 4.46 µM; in the experiment with MOLT-4 leukemia, 3.17 µM; in the experiment with SK-MEL-5 melanoma, 1.58 µM; with MDA-MB-231 breast, 3.81 µM; in the experiment on HS 578T breast it was 6.61 µM. The GI50 in the experiment with A498 renal is 2.96 µM; with OVCAR-5 ovarian, 9.77 µM; in the experiment with MALME-3M melanoma, 3.8 µM. The TGI with UACC-62 melanoma is over 100 µM; in the experiment on UO-31 renal, over 100 µM; in the experiment on MOLT-4 leukemia, over 100 µM; with SK-MEL-5 melanoma, 4.25 µM; with MDA-MB-231 breast, over 100 µM; in the experiment with HS 578T breast, over 100 µM. For the same molecule, the figures for the TGI with A498 renal, with OVCAR-5 ovarian and with MALME-3M melanoma were 8.97 µM, over 100 µM and over 100 µM, respectively.
Take `COC(=O)[C@H]1[C@@H](O)[C@@]2(O)c3c(OC)cc(O[C@@H]4O[C@@H]([C@H](O)CO)CO[C@H]4OC)cc3O[C@@]2(c2ccc(OC)cc2)[C@@H]1c1ccccc1`: the GI50 is 0.00694 µM in the experiment with UACC-62 melanoma; 0.136 µM in the experiment with UO-31 renal; 0.0031 µM in the experiment on MOLT-4 leukemia; 0.00662 µM with SK-MEL-5 melanoma; 0.00386 µM in the experiment with MDA-MB-231 breast; 0.997 µM with CAKI-1 renal. The GI50 in the experiment on HS 578T breast was 0.00596 µM; in the experiment on A498 renal it was 0.00537 µM; in the experiment with OVCAR-5 ovarian, 0.00383 µM; with MALME-3M melanoma, 0.00321 µM. Further, the TGI in the experiment on UACC-62 melanoma was 0.0322 µM; in the experiment on UO-31 renal it was 0.755 µM; in the experiment on SK-MEL-5 melanoma, 0.0494 µM; with MDA-MB-231 breast, 0.0237 µM; in the experiment on CAKI-1 renal it was over 1 µM; in the experiment with HS 578T breast, 0.0806 µM. The TGI stood at 0.0141 µM in the experiment on A498 renal, 0.0311 µM with OVCAR-5 ovarian and 0.0259 µM with MALME-3M melanoma.
On to `C[C@@H](N)C1CCC(C(=O)Nc2ccncc2)CC1` (stereo not given in full), for which the GI50 in the experiment on UACC-62 melanoma was over 100 µM; in the experiment on UO-31 renal, over 34.1 µM; with MOLT-4 leukemia, over 100 µM; in the experiment on SK-MEL-5 melanoma, over 100 µM; in the experiment with MDA-MB-231 breast, over 100 µM; in the experiment with CAKI-1 renal, over 40.4 µM. The GI50 in the experiment on HS 578T breast is 26.4 µM; with A498 renal, over 100 µM; with OVCAR-5 ovarian, over 100 µM; in the experiment with MALME-3M melanoma it was over 100 µM. The TGI in the experiment on UACC-62 melanoma, in the experiment on UO-31 renal, with MOLT-4 leukemia, in the experiment with SK-MEL-5 melanoma, in the experiment on MDA-MB-231 breast and in the experiment on CAKI-1 renal was over 100 µM in each case. Further, the TGI in the experiment with HS 578T breast, with A498 renal, with OVCAR-5 ovarian and in the experiment on MALME-3M melanoma was over 100 µM throughout.
As for `COc1ccccc1-c1cc(/C=C2\C(=O)Nc3ncc(Br)cc32)cc(Br)c1O`, the GI50 in the experiment with UACC-62 melanoma was 6.91 µM; in the experiment with UO-31 renal it was 4.49 µM; in the experiment on MOLT-4 leukemia, 9.31 µM; in the experiment with SK-MEL-5 melanoma, 11.4 µM; in the experiment on MDA-MB-231 breast, 8.52 µM; in the experiment on CAKI-1 renal, 10.1 µM. The GI50 in the experiment on HS 578T breast is 7.67 µM; in the experiment with A498 renal it was 3.73 µM; in the experiment with OVCAR-5 ovarian, over 25 µM; in the experiment with MALME-3M melanoma, 16.4 µM. Further, the TGI with UACC-62 melanoma, in the experiment with UO-31 renal, with MOLT-4 leukemia, in the experiment on SK-MEL-5 melanoma, with MDA-MB-231 breast and in the experiment on CAKI-1 renal was over 25 µM in each case. In addition, the TGI with HS 578T breast was over 25 µM; with A498 renal, 19.5 µM; in the experiment on OVCAR-5 ovarian it was over 25 µM; in the experiment with MALME-3M melanoma, over 25 µM.
Consider `Cc1ccc(S(=O)(=O)Oc2ccc([N+](=O)[O-])cc2[N+](=O)[O-])cc1`, for which the GI50 in the experiment on UACC-62 melanoma is 12.4 µM; with UO-31 renal it was 2.48 µM; with MOLT-4 leukemia, 3.82 µM; in the experiment with SK-MEL-5 melanoma, 3.26 µM; in the experiment on MDA-MB-231 breast it was 6.7 µM; with CAKI-1 renal, 2.03 µM. Moreover, the GI50 in the experiment with HS 578T breast was 21.5 µM; in the experiment on A498 renal it was 11.8 µM; with OVCAR-5 ovarian, 8.01 µM; in the experiment with MALME-3M melanoma, 10.7 µM. For the same molecule, the TGI with UACC-62 melanoma amounted to 30.9 µM; with UO-31 renal it was 9.26 µM; with MOLT-4 leukemia it was 55.1 µM; with SK-MEL-5 melanoma, 12.5 µM; in the experiment with MDA-MB-231 breast, 22.1 µM; in the experiment with CAKI-1 renal it was 4.27 µM. Besides, the TGI with HS 578T breast was over 100 µM; in the experiment with A498 renal, 24.9 µM; with OVCAR-5 ovarian, 26.6 µM; in the experiment with MALME-3M melanoma, 29.8 µM.
